Test results taken from PubChem BioAssay AID977605 (Broad Institute, 2014).
Calls of active or inactive are those of the source.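 How the source made its calls: active means fitted curve reaches 40% activation below the top valid tested dose, in every test run; inconclusive means test runs disagree on the call; inactive means the rest, including effects opposite to the expected direction.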

Test: E-selectin inducers in HUVECs, dose response, imaging, HUVEC, cherry-picked samples (AID 977605);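 further: signal is the share of imaged cells scored positive for E-selectin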
Settings: HUVEC E-selectin immunostaining, at 19.5 µM (top of the series), percent of TNF-alpha response over vehicle

Row | SMILES | activation
1 | CCC(=O)N(C)C[C@H]1Oc2ncc(Br)cc2C(=O)N([C@@H](C)CO)C[C@H]1C | -0.195% (inactive)
2 | O=C(COC(=O)CCC(=O)c1ccc(F)cc1)Nc1cccc(S(=O)(=O)N2CCCC2)c1 | 2.61% (inactive)
3 | C[C@@H]1CN([C@@H](C)CO)C(=O)Cc2cc(NC(=O)C3CC3)ccc2O[C@@H]1CN(C)Cc1ccc2c(c1)OCO2 | -0.129% (inactive)
4 | CC(C)NC(=O)Nc1ccc2c(c1)CC(=O)N([C@H](C)CO)C[C@H](C)[C@@H](CN(C)Cc1ccc(Oc3ccccc3)cc1)O2 | -0.055% (inactive)
5 | COc1ccc(NC(=O)Nc2cccc3c2O[C@H](CN(C)C(=O)NC2CCCCC2)[C@H](C)CN([C@H](C)CO)C3=O)cc1 | 0.915% (inactive)
6 | COc1ccc(S(=O)(=O)Nc2ccc3c(c2)C(=O)N([C@@H](C)CO)C[C@H](C)[C@@H](CN(C)Cc2ccc(Cl)c(Cl)c2)O3)cc1 | -0.097% (inactive)
7 | COc1cccc(NC(=O)C2C3C=CC4(O3)C2C(=O)N(CCCN2CCCCC2)C4C(=O)NC2CCCCC2)c1 (stereo unspecified) | 1.56% (inactive)
8 | COc1cc(CC2C(=O)Nc3ccccc32)cc(C)c1O (stereo unspecified) | 36.1% (inactive)
9 | COc1ccc(NC(=O)N(C)C[C@@H]2Oc3ccc(NC(=O)Cc4ccccc4)cc3CC(=O)N([C@H](C)CO)C[C@H]2C)cc1 | -0.201% (inactive)
10 | C[C@@H]1CN([C@H](C)CO)C(=O)c2cc(NC(=O)Cn3cnnn3)ccc2O[C@@H]1CN(C)S(=O)(=O)c1ccccc1 | 0.017% (inactive)
11 | CC(C)NC(=O)Nc1cccc2c1O[C@@H](CN(C)Cc1ccc(C(F)(F)F)cc1)[C@H](C)CN([C@H](C)CO)C2=O | -0.054% (inactive)
12 | CC(C)NC(=O)N(C)C[C@@H]1Oc2ccc(NC(=O)CCCN(C)C)cc2C(=O)N([C@@H](C)CO)C[C@H]1C | -0.112% (inactive)
13 | Cc1ccc(N2C(=O)[C@@H]3C(c4cccnc4)=NO[C@@H]3C2=O)c(C)c1 | 0.363% (inactive)
14 | C[C@H]1CN([C@@H](C)CO)C(=O)c2cccc(NC(=O)C3CC3)c2O[C@H]1CN(C)Cc1ccccc1 | 1.36% (inactive)
15 | COc1ccc(NC(=O)N(C)C[C@@H]2Oc3ccc(NC(=O)c4ccncc4)cc3CC(=O)N([C@@H](C)CO)C[C@H]2C)cc1 | -0.088% (inactive)
16 | CS(=O)(=O)N1CCc2cc(C(=O)NC3CC3)ccc21 | 0.099% (inactive)
17 | Cc1noc(C)c1S(=O)(=O)Nc1ccc2c(c1)CC(=O)N([C@H](C)CO)C[C@@H](C)[C@H](CN(C)C(=O)Nc1cccc3ccccc13)O2 | -0.155% (inactive)
18 | C[C@H](CO)N1C[C@H](C)[C@H](CN(C)Cc2ccc(Oc3ccccc3)cc2)Oc2c(NC(=O)C3CCOCC3)cccc2C1=O | 6.04% (inactive)
19 | CC(C)NC(=O)N(C)C[C@@H]1Oc2ccc(NS(=O)(=O)c3cccs3)cc2CC(=O)N([C@H](C)CO)C[C@@H]1C | 1.19% (inactive)
20 | Cc1ccc(S(=O)(=O)N(C)C[C@@H]2Oc3ccc(N(C)C)cc3C(=O)N([C@H](C)CO)C[C@H]2C)cc1 | 0.022% (inactive)
21 | C[C@H]1CN([C@@H](C)CO)C(=O)Cc2cc(NC(=O)NC3CCCCC3)ccc2O[C@@H]1CN(C)Cc1ccc(Cl)c(Cl)c1 | 0.088% (inactive)

Row | SMILES | activation
22 | CSc1nc2c(cnn2-c2ccc(C)c(C)c2)c(=O)[nH]1 | 0.487% (inactive)
23 | C[C@H](CO)N1C[C@H](C)[C@H](CN(C)Cc2ccc(Oc3ccccc3)cc2)Oc2ccc(NC(=O)CCCCCC(=O)Nc3ccccc3N)cc2CC1=O | 0.312% (inactive)
24 | C[C@H]1CN([C@@H](C)CO)C(=O)c2cc(NC(=O)CCCCCC(=O)Nc3ccccc3N)ccc2O[C@H]1CN(C)C(=O)Nc1ccc(F)cc1 | 0.137% (inactive)
25 | COc1ccc(S(=O)(=O)Nc2ccc3c(c2)C(=O)N([C@H](C)CO)C[C@H](C)[C@@H](CN(C)C(=O)Nc2cccc4ccccc24)O3)cc1 | 0.023% (inactive)
26 | C[C@H](CO)N1C[C@H](C)[C@H](CN(C)Cc2ccc(C(F)(F)F)cc2)Oc2ccc(N(C)C)cc2CC1=O | 0.692% (inactive)
27 | Cc1ccc(NCc2n[nH]c(=S)n2-c2ccccc2)cc1 | 1.12% (inactive)
28 | O=S(=O)(Nc1cccc(S(=O)(=O)N2CCCC2)c1)c1cccs1 | 2.79% (inactive)
29 | C[C@@H]1CN([C@H](C)CO)C(=O)Cc2cc(NC(=O)CCCCCC(=O)Nc3ccccc3N)ccc2O[C@H]1CN(C)C(=O)Nc1ccc2c(c1)OCO2 | -0.123% (inactive)
30 | CCOc1ccccc1NC(=O)N1CCC(NC(=O)C2CCCCC2)CC1 | -0.152% (inactive)
31 | C[C@H]1CN([C@@H](C)CO)C(=O)Cc2cc(NC(=O)c3ccncc3)ccc2O[C@H]1CN(C)Cc1ccc(C(=O)Nc2ccccc2N)cc1 | 6.93% (inactive)
32 | Cc1cc(C)c2sc(NNC(=O)C3COc4ccccc4O3)nc2c1 (stereo unspecified) | 0.141% (inactive)
33 | Cc1noc(C)c1S(=O)(=O)N(C)C[C@@H]1Oc2ccc(NC(=O)Nc3ccc(F)cc3)cc2CC(=O)N([C@H](C)CO)C[C@H]1C | -0.155% (inactive)
34 | CNC(=O)Oc1ccc2c(c1)[C@]1(C)CCN(C)C1N2C (stereo partly specified) | -0.106% (inactive)
35 | O=S(=O)(Nc1cccc2[nH]ncc12)c1cccs1 | -0.069% (inactive)
36 | C[C@H](CO)N1C[C@H](C)[C@H](CN(C)C(=O)Nc2ccccc2)Oc2c(NS(=O)(=O)c3cccs3)cccc2C1=O | -0.044% (inactive)
37 | Cc1nc(N2CCN(c3ccccn3)CC2)c2c(C)c(C(=O)Nc3ccc(F)cc3Cl)sc2n1 | -0.158% (inactive)
38 | COc1ccc(S(=O)(=O)Nc2ccc3c(c2)C(=O)N([C@H](C)CO)C[C@@H](C)[C@@H](CN(C)Cc2ccc(Cl)c(Cl)c2)O3)cc1 | -0.147% (inactive)
39 | COc1ccc(CNC(=O)Cn2ccc(N)nc2=O)cc1 | 0.076% (inactive)
40 | C=CCn1c(=N)n(CC(=O)c2ccc(Br)s2)c2ccccc21 | 1.81% (inactive)
41 | COc1cccc(C(=O)Nc2cc(C)c3c(=O)oc4ccccc4c3n2)c1 | 2.1% (inactive)
42 | Cc1ccc(NC(=O)CN2CCOCC2)cc1Cl | 0.043% (inactive)

Row | SMILES | activation
43 | C[C@@H]1CN([C@@H](C)CO)C(=O)Cc2cc(NC(=O)Cc3ccccc3)ccc2O[C@H]1CN(C)C(=O)Nc1cccc2ccccc12 | -0.158% (inactive)
44 | O=C(O)Cn1cc(C(=O)C(F)(F)F)c2ccccc21 | 0.43% (inactive)
45 | C[C@@H]1CN([C@H](C)CO)C(=O)Cc2cc(NS(C)(=O)=O)ccc2O[C@@H]1CN(C)S(=O)(=O)c1cn(C)cn1 | 13.4% (inactive)
46 | Cn1c(CNS(=O)(=O)c2ccc(Cl)cc2)cc(=O)n(C)c1=O | -0.279% (inactive)
47 | COc1ccc(-c2nc(NC(=O)Cn3c(=O)oc4ccccc43)sc2C)cc1 | 1.37% (inactive)
48 | COc1ccc(NC(=O)Nc2cccc3c2O[C@H](CN(C)Cc2ccc(C(=O)Nc4ccccc4N)cc2)[C@H](C)CN([C@H](C)CO)C3=O)cc1 | 1.32% (inactive)
49 | O=C(CN(CC1CCCO1)C(=O)CNS(=O)(=O)c1ccccc1)NCc1ccc(F)cc1 (stereo unspecified) | 1.46% (inactive)
50 | CN(C1CCCCC1)S(=O)(=O)c1cn(C)c(=O)n(C)c1=O | -0.175% (inactive)
51 | O=C(NCc1ccccc1)C1CCCN(S(=O)(=O)c2ccc(-n3cnnn3)cc2)C1 (stereo unspecified) | 1.85% (inactive)
52 | COc1ccc(S(=O)(=O)N(C)C[C@@H]2Oc3ccc(NC(=O)Nc4c(C)noc4C)cc3C(=O)N([C@H](C)CO)C[C@@H]2C)cc1 | -0.123% (inactive)
53 | COc1ccc(N2CCN(C(=O)c3ccccc3NC(=O)C3=C(C)OCCS3)CC2)cc1 | -0.181% (inactive)
54 | CC(C)NC(=O)Nc1ccc2c(c1)C(=O)N([C@@H](C)CO)C[C@H](C)[C@@H](CN(C)Cc1ccc(C(F)(F)F)cc1)O2 | -0.03% (inactive)
55 | C/C(=N\NC(=O)C1CC1)c1ccc(Cl)cc1 | -0.246% (inactive)
56 | COc1ccc(NC(=O)N(C)C[C@H]2Oc3ccc(N(C)C)cc3CC(=O)N([C@H](C)CO)C[C@@H]2C)cc1 | -0.19% (inactive)
57 | C[C@@H]1CN([C@@H](C)CO)C(=O)Cc2cc(NC(=O)c3ccncc3)ccc2O[C@H]1CN(C)Cc1ccc(Oc2ccccc2)cc1 | 0.031% (inactive)
58 | CC(=O)c1ccc(N2CCN(c3ccnc4cc(Cl)ccc34)CC2)cc1 | 1.69% (inactive)
59 | C/C(=N\NC(=O)c1cc(C(C)C)[nH]n1)c1ccco1 | 0.133% (inactive)
60 | C[C@@H]1CN([C@H](C)CO)C(=O)c2cc(Br)cnc2O[C@@H]1CN(C)C(=O)C1CC1 | -0.087% (inactive)
61 | C[C@H]1CN([C@@H](C)CO)C(=O)c2cc(NC(=O)CCN3CCOCC3)ccc2O[C@@H]1CN(C)Cc1ccncc1 | 0.277% (inactive)
62 | C[C@H](CO)N1C[C@H](C)[C@H](CN(C)S(=O)(=O)c2ccccc2)Oc2ccc(NC(=O)Nc3ccc(F)cc3)cc2CC1=O | 0.322% (inactive)
63 | C[C@H](CO)N1C[C@H](C)[C@H](CN(C)Cc2ccc(C(=O)Nc3ccccc3N)cc2)Oc2ccc(NS(=O)(=O)c3cccs3)cc2CC1=O | 6.58% (inactive)

Same assay, conditions: HUVEC E-selectin immunostaining, at 21 µM (top of the series), percent of TNF-alpha response over vehicle

Row | SMILES | activation
64 | C[C@@H]1CN([C@@H](C)CO)C(=O)c2cccc(NC(=O)c3ccncc3)c2O[C@H]1CN(C)C(=O)Nc1cccc2ccccc12 | 1.89% (inactive)
65 | C[C@H](CO)N1C[C@H](C)[C@@H](CN(C)C(=O)NC2CCCCC2)Oc2ccc(NC(=O)Nc3ccc(C(F)(F)F)cc3)cc2C1=O | -0.177% (inactive)
66 | COc1ccc(NC(=O)Nc2ccc3c(c2)C(=O)N([C@@H](C)CO)C[C@@H](C)[C@@H](CN(C)S(=O)(=O)c2ccc(F)cc2)O3)cc1 | 0.213% (inactive)
67 | COc1ccc(CN(C)C[C@@H]2Oc3c(NC(=O)c4cnccn4)cccc3C(=O)N([C@@H](C)CO)C[C@H]2C)cc1 | -0.033% (inactive)
68 | C[C@H](CO)N1C[C@H](C)[C@H](CN(C)Cc2ccncc2)Oc2ccc(NS(C)(=O)=O)cc2CC1=O | 0.077% (inactive)
69 | C[C@H]1CN([C@@H](C)CO)C(=O)c2cc(NC(=O)Nc3ccccc3)ccc2O[C@@H]1CN(C)C(=O)Nc1ccc(C(F)(F)F)cc1 | 0.08% (inactive)
70 | C[C@@H]1CN([C@H](C)CO)C(=O)c2cc(NC(=O)C3CCCCC3)ccc2O[C@H]1CN(C)C(=O)Nc1ccc2c(c1)OCO2 | 4.77% (inactive)
71 | Cc1noc(C)c1NC(=O)Nc1cccc2c1O[C@@H](CN(C)CC1CCCCC1)[C@H](C)CN([C@@H](C)CO)C2=O | -0.074% (inactive)
